This passage reports MIC results from ChEMBL document CHEMBL3045509, “Oxadiazolo pyrrolidine carboxamides as enoyl-ACP reductase inhibitors: design, synthesis and antitubercular activity screening” (2013).

What is called MIC is the lowest concentration that inhibits growth of the organism.

The structures appear in SMILES notation. In brackets after ≈: the same amount, converted by molar mass.

For this assay, the system named is Mycobacterium tuberculosis. The experiment in a line: Antitubercular activity against Mycobacterium tuberculosis H37Rv MTCC 300 after 7 days by Alamar blue assay. It is filed as functional. Conditions: H37Rv MTCC 300, 168 h. For orientation: Resazurin is reduced to fluorescent resorufin, in cell work by metabolically active cells.
`O=C(Nc1nnc(-c2ccccc2)o1)C1CC(=O)N(c2ccccc2)C1` (stereo unspecified) returned a minimum inhibitory concentration (MIC) of 12.5 µg/mL (≈ 35.9 µM).

`O=C(Nc1nnc(-c2ccc([N+](=O)[O-])cc2)o1)C1CC(=O)N(c2ccccc2)C1` (stereo unspecified) yielded an MIC of 25 µg/mL (≈ 63.6 µM).

In turn, `Cc1ccc(-c2nnc(NC(=O)C3CC(=O)N(c4ccccc4)C3)o2)cc1` (stereo unspecified) yielded an MIC of 50 µg/mL (≈ 138 µM).

Turning to `O=C(Nc1nnc(-c2ccc(Cl)cc2)o1)C1CC(=O)N(c2ccccc2)C1` (stereo unspecified), the minimum inhibitory concentration (MIC) came to 25 µg/mL (≈ 65.3 µM).

In the case of `NNC(=O)c1ccncc1` [ISONIAZID], 0.25 µg/mL (≈ 1.82 µM) was the least that counted as inhibitory (MIC).

Turning to `COc1ccc(-c2nnc(NC(=O)C3CC(=O)N(c4ccccc4)C3)o2)cc1` (stereo unspecified), the MIC was determined as 3.12 µg/mL (≈ 8.26 µM).
